Data on 1 compound can be found in patent publication US20030083323A1, “Oral use of dehydroepiandrosterone and some of its derivatives as pigmentation regulators” (priority 2000, published 2003).

Experiment [1] concerns hair (degree of canities). In words: Effect of oral DHEA on canities, questionnaire at end of randomized double-blind clinical study versus placebo. It is filed as in vivo, human. The note with it: oral DHEA 50 mg daily, 6 months. How it is done:
The evaluation was carried out using a randomized double-blind clinical study on 140 individuals. The inclusion criteria were as follows: healthy male volunteers free of any severe pathological condition and 60 to 80 years old.
The treatment consisted, for 6 months, of a daily dose of 50 mg of DHEA, taken in the morning, in the form of a breakable tablet, for half the individuals, or of its placebo for the other half of the individuals.
At the end of the 6 months of treatment, the individuals answered a series of questions concerning the state of their hair and the effect of the treatment on various parameters, in particular regarding their degree of canities (improvement, worsening or no change in the number of white hairs).
The statistical analysis is performed with Wilcoxon tests.

Experiment [2] concerns human skin. In words: Depigmenting power on the skin of DHEA administered orally, colorimetry b* (Minolta CR200 chromameter), randomized double-blind clinical study versus placebo. It is filed as in vivo. Conditions: oral DHEA 50 mg per day, 12 months, healthy female volunteers 60 to 80 years old; p=0.006, Wilcoxon test. Here is the method:
The evaluation was carried out using a randomized double-blind clinical study on 140 individuals. The inclusion criteria were as follows: healthy female volunteers free of any severe pathological condition and 60 to 80 years old.
The treatment consisted, for 12 months, of a daily dose of 50 mg of DHEA, taken in the morning, in the form of a breakable tablet, for half the individuals, or of a placebo for the other half of the individuals.
The skin pigmentation is measured at the start of treatment (TO) and after 12 months (T12), by colorimetry using a Minolta CR200 chromameter (Minolta, 365, route de Saint-Germain 78424 Carrières sur Seine).
This machine describes the colors in a three-dimensional space, using the system of coordinates L, a* and b* and recommended by the CIE in 1976. In this system, L* expresses the luminance or clarity of the color (0 corresponding to black and 100 to white), a is the component for separation between green (negative) and red (positive) and b*, which varies from blue (negative) to yellow (positive) expresses the pigmentation of the skin. The latter parameter was used to evaluate the change in skin color during the treatment.
The machine is calibrated on a standard “white” (surface provided with the machine) at the beginning of each day of measurement and the calibration is controlled throughout the day. […]

The mark [3] stands for this setting: healthy male volunteers 60 to 80 years old, total 64.

Values joined by “and” are separate entries in the source; they are usually repeats but may differ in a detail not shown here. Equal values may be shown once.

In the case of `C[C@]12CC[C@H](O)CC1=CC[C@@H]1[C@@H]2CC[C@]2(C)C(=O)CC[C@@H]12` [DHEA, dehydroepiandrosterone], in experiment [1] (setting [3]), the “degree of canities: Improvement (number of individuals, number of white hairs decreased)” value is 5; the “degree of canities: No change (number of individuals)” value is reported as 59; the “degree of canities: Worsening (number of individuals)” value was “no individual experienced a worsening and 0”. Further, the “overall effect on hair pigmentation versus placebo” value in experiment [1] (difference between treatments significant, p=0.0094, Wilcoxon test) is “propigmenting effect on hair”. Moreover, the “skin pigmentation (b*) compared to the placebo group” value in experiment [2] is “significant decrease in pigmentation”.
